The record followed here is US20220289698A1, “INHIBITORS OF HUMAN ATGL” (Karl-Franzens-Universität Graz, priority 2019, published 2022).

The nature of one data set: Stability in human serum. In kind it is in vitro ADME. The following applies: 37° C., HPLC MS. As for the experimental part:
Inhibitors were incubated in human serum for 0 or 3 h at 37° C. and subsequently extracted with the MTBE method and analyzed via HPLC MS. Samples measured in triplicates.

Another data set deals with T1, murine ATGL (Mus musculus, UniProt Q8BJ56).
T1 construct: made in house; host or cells: Expi cells (lysate)
T1 sequence (Q8BJ56 1-486): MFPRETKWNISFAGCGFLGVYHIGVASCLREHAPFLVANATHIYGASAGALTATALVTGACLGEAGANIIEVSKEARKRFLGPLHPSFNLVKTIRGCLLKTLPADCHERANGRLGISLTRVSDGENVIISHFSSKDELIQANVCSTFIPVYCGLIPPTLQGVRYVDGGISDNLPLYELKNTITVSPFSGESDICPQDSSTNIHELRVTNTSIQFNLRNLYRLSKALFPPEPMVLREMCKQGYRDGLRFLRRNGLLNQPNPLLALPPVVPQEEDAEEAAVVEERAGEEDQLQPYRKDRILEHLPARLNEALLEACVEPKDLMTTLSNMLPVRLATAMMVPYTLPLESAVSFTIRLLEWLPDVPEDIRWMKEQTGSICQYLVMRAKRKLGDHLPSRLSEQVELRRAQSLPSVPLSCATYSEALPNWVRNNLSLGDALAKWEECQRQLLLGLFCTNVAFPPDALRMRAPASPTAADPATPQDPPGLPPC
The data set can be described thus: TG hydrolase activity, Expi lysates expressing mouse ATGL + CGI-58, radiolabelled triolein. The class given is biochemical. The procedure, abridged: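 Lysates of Expi cells overexpressing mouse ATGL, with added recombinant CGI-58, were incubated with inhibitor at 50 μM. Substrate was emulsified radiolabelled triolein with PC/PI in 100 mM potassium phosphate pH 7.0 and 5% FA-free BSA, 1 h at 37° C. Released FA were extracted and counted by scintillation; triplicates, DMSO control.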

For data set [1], the target named is T2, human ATGL (Homo sapiens, UniProt Q96AD5).
T2 construct: made in house; host or cells: Expi cells (lysate, not purified)
T2 sequence (Q96AD5 1-504): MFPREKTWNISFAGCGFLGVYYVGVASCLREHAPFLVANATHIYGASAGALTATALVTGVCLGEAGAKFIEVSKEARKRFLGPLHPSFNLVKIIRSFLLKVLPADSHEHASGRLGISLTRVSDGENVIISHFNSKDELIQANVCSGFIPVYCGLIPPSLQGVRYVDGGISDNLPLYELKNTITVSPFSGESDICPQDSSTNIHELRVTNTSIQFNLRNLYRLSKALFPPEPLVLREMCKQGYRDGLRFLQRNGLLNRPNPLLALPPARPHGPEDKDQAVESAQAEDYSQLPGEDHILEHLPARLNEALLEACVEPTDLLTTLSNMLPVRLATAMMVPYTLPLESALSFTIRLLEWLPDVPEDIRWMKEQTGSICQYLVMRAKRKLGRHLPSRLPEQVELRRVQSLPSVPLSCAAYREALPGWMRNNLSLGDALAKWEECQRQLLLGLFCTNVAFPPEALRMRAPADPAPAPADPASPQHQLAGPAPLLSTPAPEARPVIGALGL
The data set can be described thus: TG hydrolase activity, Expi cell lysates expressing human ATGL + CGI-58, radiolabelled triolein. In kind it is biochemical. The procedure, abridged:
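Lysates of Expi cells expressing ATGL, supplemented with purified CGI-58 and inhibitor in DMSO, incubated 1 h at 37 °C with emulsified radiolabelled triolein (330 μM) in potassium phosphate pH 7.0 with 5% FA-free BSA. Released FA counted by liquid scintillation after phase extraction; IC50 versus DMSO control, duplicates.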

The target of data set [2] is T2, human ATGL. The experiment in a line: Ki determination, human ATGL lysates with increasing substrate concentrations. In kind it is biochemical. The following applies: non-linear regression. As for the experimental part:
For determination of Ki values, lysates from Expi cells overexpressing human ATGL were incubated with recombinant purified ATGL co-activator CGI-58 and ATGL inhibitors at a single concentration dependent on the previously determined IC50. Increasing concentrations of substrate containing radiolabeled triolein were added and liberated FA were extracted and quantified by liquid scintillation. Inhibitors were dissolved in DMSO which was used as control. Ki was determined via non-linear regression analysis. Samples were measured in triplicates.

Data set [3] relates to differentiated hMADS adipocytes. The experiment in a line: Isoproterenol-stimulated lipolysis in differentiated hMADS adipocytes. The class given is cell-based. The following applies: Homo sapiens, Adipocyte, 2 h pretreatment, 1 μM isoproterenol 1 h. As to the method: Human differentiated hMADS adipocytes were pretreated with DMSO or ATGL inhibitors for 2 h. Subsequently, lipolysis was stimulated with 1 μM Isoproterenol for 1 h and fatty acid release was determined from media via NEFA Reagent (Wako Diagnostics). Samples were measured in triplicates.
Human differentiated hMADS adipocytes were pretreated with DMSO or ATGL inhibitors for 2 h. Subsequently, lipolysis was stimulated with 1 μM Isoproterenol for 1 h and glycerol release was determined from media via Free glycerol reagent (Sigma Aldrich). Samples were measured in triplicates.

Another data set has as its system HepG2 cells. The data set can be described thus: Toxicity screening (LDH) in HepG2 cells. In kind it is cell-based, human. Conditions: 24 h treatment, LDH release. As for the experimental part:
HepG2 cells were seeded in 96 well plates and at 50% confluency treated with DMSO (0.5% final conc.) or ATGL Inhibitors for 24 h in DMEM+P/S+3% heat inactivated FCS (3 h at 62° C.). Subsequently, LDH activity of 50 μl medium was determined via the Roche LDH Kit. Samples measured in triplicates.
In general terms: LDH leaks from cells whose membrane has failed.

Data set [4] has as its system differentiated SGBS adipocytes. The data set can be described thus: Isoproterenol-stimulated lipolysis in differentiated SGBS adipocytes. The class given is cell-based. Conditions: Homo sapiens, 2 h pretreatment, 1 μM isoproterenol 1 h. As to the method:
Human differentiated SGBS adipocytes were pretreated with DMSO or ATGL inhibitors for 2 h. Subsequently, lipolysis was stimulated with 1 μM Isoproterenol for 1 h and fatty acid release was determined from media via NEFA Reagent (Wako Diagnostics). Samples were measured in triplicates.
Human differentiated SGBS adipocytes were pretreated with DMSO or ATGL inhibitors for 2 h. Subsequently, lipolysis was stimulated with 1 μM Isoproterenol for 1 h and glycerol release was determined from media via Free glycerol reagent (Sigma Aldrich). Samples were measured in triplicates.

The mark [5] stands for this setting: 50 μM compound, Example 237, read-out: Inhibition of murine ATGL at 50 μM − mean [%].
Where [6] appears, read: Example 237, read-out: Inhibition of human ATGL − IC50.
The mark [7] stands for this setting: fatty acid release, read-out: IC50 hMADS FA release.
Setting [8] is: glycerol release, read-out: IC50 hMADS glycerol release.

Molecules are shown by their SMILES. Read-outs that look alike come from different tables or passages of the source.

For orientation: inhibition means the change of the read-out against control, counted positive when it falls. In general, IC50 refers to the midpoint of a concentration-inhibition curve. Broadly, the melting point is the temperature of the solid-liquid transition. Usually Ki stands for a measure of affinity in units of concentration, obtained from inhibition or displacement. Higher therefore signals a looser hold on the target. Take `CC(C)OC(=O)c1cccc(-c2ccc(C(F)(F)F)cc2)n1` [Example 41]: the melting point lay within 98 to 99 °C. In addition, in the data set “Stability in human serum”, the “Stability in human serum [% rest after 3 h incubation]” value is 75%. For the same compound, the inhibition at 50 µM at murine ATGL (setting [5]) came out at 28.2%. Further, at human ATGL [1] (setting [6]), the 50% inhibitory concentration (IC50) is 3000 nM. The affinity at human ATGL [2] corresponds to a Ki of 2500 nM.

For the compound `CCCc1ccc(-c2cccc(C(=O)OC(C)C)n2)cc1` [Example 43], the melting point is 104 to 107 °C. In the data set “Stability in human serum”, the “Stability in human serum [% rest after 3 h incubation]” value was 80%. The IC50 in data set [3] (setting [7]) was 3000 nM. Moreover, the inhibition at 50 µM on murine ATGL (setting [5]) came to 9.8%. In addition, the 50% inhibitory concentration (IC50) at human ATGL [1] (setting [6]) was 2000 nM. The compound further came in with a Ki at human ATGL [2] of 470 nM.

In the case of `CCCc1ccc(-c2cc(OC)cc(C(=O)OC(C)C)n2)cc1` [Example 53], in “Stability in human serum”, the “Stability in human serum [% rest after 3 h incubation]” value was determined as 80%. In addition, the IC50 in data set [3] (setting [8]) is 80000 nM; at human ATGL [1] (setting [6]), 1500 nM. The inhibition at 50 µM on murine ATGL (setting [5]) was found to be 0%. This compound came in with a Ki on human ATGL [2] of 550 nM.

As for `COCc1ccc(-c2cc(OC)cc(C(=O)OC(C)C)n2)cc1` [Example 61], the “Stability in human serum [% rest after 3 h incubation]” value in “Stability in human serum” amounted to 75%. Moreover, the IC50 in data set [3] (setting [7]) worked out at 2000 nM; at human ATGL [1] (setting [6]) it was 1000 nM. Moreover, at human ATGL [2], the Ki was 420 nM. For the same compound, the “Tox HepG2 (LDH) seen from” value in the data set with HepG2 cells came to 50 µM.

Consider `CCCCCCc1ccc(-c2cccc(C(=O)OC(C)C)n2)cc1` [Example 68], for which the melting point lay within 34 to 35 °C. Further, the “Stability in human serum [% rest after 3 h incubation]” value in “Stability in human serum” was determined as 80%. Besides, the IC50 in data set [3] (setting [7]) amounted to 1000 nM. Besides, the inhibition at 50 µM at murine ATGL (setting [5]) worked out at 0%. Moreover, on human ATGL [1] (setting [6]), the IC50 amounted to 1500 nM. In addition, the Ki at human ATGL [2] stood at 270 nM.

Consider `CCCCCCOc1ccc(-c2cccc(C(=O)OC(C)C)n2)cc1` [Example 69], for which the melting point lay in the range of 68 to 70 °C. Besides, the “Stability in human serum [% rest after 3 h incubation]” value in “Stability in human serum” was determined as 80%. Besides, the IC50 in data set [3] (setting [8]) was determined as 80000 nM. The half-maximal inhibitory concentration (IC50) at human ATGL [1] (setting [6]) amounted to 1000 nM. The inhibition constant Ki on human ATGL [2] was determined as 830 nM.

Take `CCCCCCCOc1ccc(-c2cccc(C(=O)OC(C)C)n2)cc1` [Example 86]: the melting point was 64 to 66 °C. Besides, the “Stability in human serum [% rest after 3 h incubation]” value in the data set “Stability in human serum” was determined as 80%. In data set [3] (setting [7]), the half-maximal inhibitory concentration (IC50) was found to be 1000 nM. In addition, the inhibition at 50 µM at murine ATGL (setting [5]) was 0%. In addition, the IC50 on human ATGL [1] (setting [6]) is 1500 nM. This compound displayed a Ki on human ATGL [2] of 470 nM.

For the compound `CCOC(=O)c1csc(-c2ccc(OCC)cc2)n1` [Example 101, Ethyl 2-(4-ethoxyphenyl)thiazole-4-carboxylate], the “Stability in human serum [% rest after 3 h incubation]” value in the data set “Stability in human serum” was 25%. In addition, the concentration for half-maximal inhibition (IC50) in data set [4] (fatty acid release, read-out: IC50 SGBS FA release) came to 3000 nM; in data set [4] (glycerol release, read-out: IC50 SGBS glycerol release), 3000 nM; on human ATGL [1] (values of text and figure legend, read-out: IC50 on human ATGL (hATGL)) it was 2500 nM. Further, the inhibition at 50 µM at murine ATGL (setting [5]) stood at 23.6%; at murine ATGL (50 μM, overview table, read-out: mouse ATGL inhibition [% inhibition at 50 μM]), 30%. On human ATGL [2], this compound gave an inhibition constant Ki of 2500 nM.

Take `C#CC(C)OC(=O)c1csc(-c2ccc(OCC)cc2)n1` (stereo not shown) [Example 157, But-3-yn-2-yl 2-(4-ethoxyphenyl)thiazole-4-carboxylate]: the IC50 in data set [3] (setting [7]) is 2500 nM; in data set [3] (setting [8]), 5000 nM; at human ATGL [1] (setting [6]), 900 nM. The compound further showed a Ki at human ATGL [2] of 210 nM.
